Data on 5 molecules can be found in patent US7960427B2, “5-hydroxyindole-3-carboxylate derivatives and uses thereof” (priority 2004, dated 2011).

In general, IC50 refers to the point on the concentration scale where inhibition reaches its midpoint.

SMILES strings stand for the structures. In brackets after ≈: the same amount, converted by molar mass. Structures can show the parent of a compound that is named as a salt.

One series deals with HBeAg. Briefly: In vitro anti-HBV activity: HBeAg production in HBV-infected 2.2.15 cells (RIA). The following applies: for IC50: Hepatitis B virus, read-out: HBeAg IC50; for HBeAg SI: selectivity index. Type of series: cell-based, Hepatitis B virus (HBV). On the procedure:
(§1) All compounds were evaluated for their anti-HBV activities, namely the ability to inhibit the replication of HBV DNA and the production of HBsAg and HBeAg in HBV-infected 2.2.15 cells.
(§2) The samples were dissolved in DMSO for appropriate concentrations, and then each was diluted 3-fold with culture medium. The 2.2.15 cells were planted into 96-well culture plates. […] The culture supernatants and 2.2.15 cells were collected respectively on the 8th plant day. The secretion concentrations of HBsAg and HBeAg in the culture supernatants were measured by RIA on SPRIA Kit for Detection of HBsAg and HBeAg (Beijing North Institute of Biological Technology), and the replication of HBV DNA was measured by dot hybridization with a^32PdCTP (FuRui Biological Technology Ltd., China).

The subject of a further series is 2.2.15 cells. Briefly: Cytotoxicity (TC50) in 2.2.15 cells. It counts as cell-based.
Another series relates to HBV DNA. Briefly: In vitro anti-HBV activity: replication of HBV DNA in 2.2.15 cells (dot hybridization). It counts as cell-based, Hepatitis B virus (HBV). Particulars: for IC50: Hepatitis B virus, read-out: DNA replication IC50; for DNA replication SI: selectivity index. The gist of the method:
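HBV-producing 2.2.15 cells exposed to 3-fold serial dilutions of compound (DMSO stocks diluted in medium); cells and supernatants harvested on day 8. Intracellular HBV DNA replication quantified by dot hybridization with α-32P-dCTP probe; HBsAg/HBeAg in supernatant by RIA.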

A further series deals with HBsAg. Nature of the series: In vitro anti-HBV activity: HBsAg production in HBV-infected 2.2.15 cells (RIA). Particulars: for IC50: Hepatitis B virus, read-out: HBsAg IC50; for HBsAg SI: selectivity index. Type of series: cell-based, Hepatitis B virus (HBV). As for the experimental part:
as §1, §2

Take `CCOC(=O)c1c(CS(=O)(=O)c2cccc(OC)c2)n(C)c2ccc(O)c(CN3CCCC3)c12` [Example 72, Ethyl 5-hydroxy-1-methyl-4-(1-pyrrolidinylmethyl)-2-[(3-methoxyphenyl)sulfonylmethyl]-1H-indole-3-carboxylate hydrochloride]: in the series with HBeAg, the IC50 was found to be 15.4 µg/mL and the “HBeAg SI” value is 6.9. The molecule also displayed a TC50 in the series on 2.2.15 cells of 106.83 µg/mL. Besides, in the series on HBV DNA, the IC50 turned out to be 15.4 µg/mL and the “DNA replication SI” value stood at 6.9.
Take `CCOC(=O)c1c(C[S+]([O-])Cc2cscn2)n(C2CC2)c2cc(Br)c(O)c(Cn3ccnc3)c12` (stereo not drawn) [Example 128, Ethyl 6-bromo-1-cyclopropyl-5-hydroxy-4-[(1-imidazolyl)methyl]-2-[(4-thiazolylmethyl)sulfinylmethyl]-1H-indole-3-carboxylate dihydrochloride]: in the series with HBeAg, the IC50 is 8.06 µg/mL and the “HBeAg SI” value was 6.63. Also, in the series with HBsAg, the IC50 turned out to be 7.23 µg/mL and the “HBsAg SI” value was found to be 7.39. Also, the TC50 in the series on 2.2.15 cells worked out at 53.42 µg/mL.
For `CCOC(=O)c1c(CS(=O)(=O)C23CC4CC(CC(C4)C2)C3)n(C)c2cc(Br)c(O)c(Cn3ccnc3C)c12` [Example 179, Ethyl 6-bromo-5-hydroxy-1-methyl-4-[(2-methyl-1-imidazolyl)methyl]-2-[(1-adamantanyl)sulfonylmethyl]-1H-indole-3-carboxylate] the same measures were 1.91 µg/mL (≈ 3.16 µM), 5.60, 1.88 µg/mL (≈ 3.11 µM), 5.69 and 10.69 µg/mL (≈ 17.7 µM).
Regarding `CCOC(=O)c1c(C[S+]([O-])Cc2cscn2)n(C2CC2)c2cc(Br)c(O)c(Cn3ccnc3C)c12` (stereo not drawn) [Example 182, Ethyl 6-bromo-1-cyclopropyl-5-hydroxy-4-[(2-methyl-1-imidazolyl)methyl]-2-[(4-thiazolylmethyl)sulfinylmethyl]-1H-indole-3-carboxylate dihydrochloride], in the series with HBeAg, the IC50 is 7.69 µg/mL and the “HBeAg SI” value was determined as 8.34. For the same molecule, in the series with HBsAg, the IC50 was 4.66 µg/mL and the “HBsAg SI” value amounted to 13.77. Further, the TC50 in the series with 2.2.15 cells was found to be 64.15 µg/mL.
For `CCOC(=O)c1c(CSc2nc3ccccc3[nH]2)n(C)c2cc(Br)c(O)c(CNC(=N)N)c12` [Example 189, Ethyl 6-bromo-4-(guanidinylmethyl)-5-hydroxy-1-methyl-2-[(benzo[d]imidazol-2-yl)thiomethyl]-1H-indole-3-NL carboxylate], in the series with HBeAg, the IC50 was found to be 28 µg/mL (≈ 52.6 µM) and the “HBeAg SI” value is reported as 9.25. In the series on HBsAg, the IC50 is 12.5 µg/mL (≈ 23.6 µM) and the “HBsAg SI” value is recorded as 20.66. Also, the TC50 in the series with 2.2.15 cells was 258.69 µg/mL (≈ 487 µM). In the series on HBV DNA, the IC50 came out at 12.4 µg/mL (≈ 23.3 µM) and the “DNA replication SI” value was determined as 20.91.
